In PubChem BioAssay (NCI):
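Step 1: Grow cells in 96-well plates. Step 2: Expose to compound for 48 hours at 5 concentrations. Step 3: Interpolate endpoints linearly; if unreached, use highest concentration. Abbreviation: GI50, concentration required for 50% inhibition of growth. Definition used: TGI = concentration required for complete inhibition of growth.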

Key:
Assay in all cases: NCI anticancer screen, dose series, 48 h; in the data active = GI50 below about 0.43 µM; inactive = the rest
[1] = tested on: RPMI-8226 leukemia
[2] = tested on: OVCAR-3 ovarian
[3] = tested on: OVCAR-8 ovarian
[4] = tested on: CAKI-1 renal
[5] = tested on: SK-MEL-28 melanoma
[6] = tested on: MOLT-4 leukemia
[7] = tested on: DU-145 prostate
[8] = tested on: SR leukemia
[9] = tested on: SF-268 CNS
[10] = tested on: HL-60(TB) leukemia
[11] = tested on: SK-MEL-2 melanoma
[12] = tested on: SF-295 CNS
[13] = tested on: IGROV1 ovarian
[14] = tested on: ACHN renal
[15] = tested on: SK-OV-3 ovarian
[16] = tested on: HCT-116 colon
[17] = tested on: LOX IMVI melanoma
[18] = tested on: 786-0 renal
[19] = tested on: SN12C renal
[20] = tested on: MCF7 breast
[21] = tested on: EKVX NSCLC
[22] = tested on: U251 CNS
[23] = tested on: NCI-H460 lung
[24] = tested on: NCI/ADR-RES ovarian
[25] = tested on: TK-10 renal
[26] = tested on: SF-539 CNS
[27] = tested on: M14 melanoma
[28] = tested on: OVCAR-5 ovarian
[29] = tested on: HOP-92 NSCLC
[30] = tested on: BT-549 breast
[31] = tested on: KM12 colon
[32] = tested on: MDA-MB-435
[33] = tested on: SNB-75 CNS
[34] = tested on: MALME-3M melanoma
[35] = tested on: MDA-MB-231 breast
[36] = tested on: A549 NSCLC
[37] = tested on: HS 578T breast
[38] = tested on: HOP-62 NSCLC
[39] = tested on: SK-MEL-5 melanoma
[40] = tested on: K-562 leukemia
[41] = tested on: UO-31 renal
[42] = tested on: HCT-15 colon
[43] = tested on: RXF 393 renal
[44] = tested on: NCI-H226 lung
[45] = tested on: PC-3 prostate
[46] = tested on: UACC-62 melanoma
[47] = tested on: UACC-257 melanoma
[48] = tested on: HT29 colon
[49] = tested on: NCI-H522 lung
[50] = tested on: NCI-H23 lung
[51] = tested on: CCRF-CEM leukemia
[52] = tested on: A498 renal
[53] = tested on: SNB-19 CNS

Cc1sc2c(c1C)C(c1ccc(Cl)cc1)=N[C@@H](CC(=O)NCCCCCNC(=O)COc1ccc(C3CCC(=O)NC3=O)cc1)c1nnc(C)n1-2 (some centres undefined)
> 40900 nM: TGI [25]
541 nM: TGI [30]
> 89500 nM: TGI [42]
99.5 nM: TGI [10]
1120 nM: TGI [1]
> 100000 nM: TGI [2] | TGI [3] | TGI [4] | TGI [5] | TGI [6] | TGI [7] | TGI [8] | TGI [9] | TGI [11] | TGI [12] | TGI [13] | TGI [14] | TGI [15] | TGI [16] | TGI [18] | TGI [19] | TGI [20] | TGI [21] | TGI [22] | TGI [23] | TGI [24] | TGI [26] | TGI [27] | TGI [28] | TGI [31] | TGI [32] | TGI [34] | TGI [35] | TGI [36] | TGI [37] | TGI [38] | TGI [40] | TGI [43] | TGI [44] | TGI [45] | TGI [46] | TGI [47] | TGI [48] | TGI [49] | TGI [50] | TGI [51] | TGI [52] | TGI [53]
389 nM: TGI [33]
active: GI50 [1] 38 nM | GI50 [3] 298 nM | GI50 [6] 113 nM | GI50 [8] 64.5 nM | GI50 [11] 371 nM | GI50 [13] 269 nM | GI50 [19] 293 nM | GI50 [20] 39.7 nM | GI50 [29] 61.9 nM | GI50 [30] 54.7 nM | GI50 [32] 171 nM | GI50 [33] < 18.9 nM | GI50 [35] 90.8 nM | GI50 [37] 154 nM | GI50 [39] 345 nM | GI50 [45] 134 nM | GI50 [51] 51.9 nM
53900 nM: TGI [41]
> 42900 nM: TGI [17]
inactive: GI50 [2] 2300 nM | GI50 [4] 845 nM | GI50 [5] 901 nM | GI50 [7] > 100000 nM | GI50 [9] 629 nM | GI50 [12] 3110 nM | GI50 [14] 20700 nM | GI50 [15] 3310 nM | GI50 [16] 1690 nM | GI50 [17] 1480 nM | GI50 [18] 2080 nM | GI50 [21] 2500 nM | GI50 [22] 3090 nM | GI50 [23] 47400 nM | GI50 [24] > 100000 nM | GI50 [25] 1700 nM | GI50 [26] 439 nM | GI50 [27] 1010 nM | GI50 [28] 795 nM | GI50 [31] 483 nM | GI50 [34] 788 nM | GI50 [36] 3960 nM | GI50 [38] 644 nM | GI50 [40] 565 nM | GI50 [41] 3200 nM | GI50 [42] 3770 nM | GI50 [43] 2170 nM | GI50 [44] 476 nM | GI50 [46] 429 nM | GI50 [47] > 26300 nM | GI50 [48] 950 nM | GI50 [49] 4370 nM | GI50 [50] 13100 nM | GI50 [52] 6270 nM | GI50 [53] 438 nM
3450 nM: TGI [39]
